From publication PMC9775322, “An Integrated Analysis of Mechanistic Insights into Biomolecular Interactions and Molecular Dynamics of Bio-Inspired Cu(II) and Zn(II) Complexes towards DNA/BSA/SARS-CoV-2 3CL^pro by Molecular Docking-Based Virtual Screening and FRET Detection” (Biomolecules, 2022)

Assays:
Escherichia coli = experiment: Agar disc diffusion antibacterial test; settings: for diameter of clear zone inhibition / Inhibition %: A, (-) Escherichia coli; for diameter of clear zone inhibition: 20 µL of 100 µM on 6 mm disc, Control (DMSO) = 6 mm; for Inhibition %: (T–C)/T × 100
[1] = Nitric oxide scavenging assay; format: biochemical; settings: 546 nm
EB–DNA = experiment: Ethidium bromide displacement assay by fluorescence spectral titration; format: binding, calf; settings: Kapp=KEB[EB]/[compound], KEB = 10^7 M^−1 at 50 µM EB; compound concentration at 50% reduction of EB fluorescence
Pseudomonas aeruginosa = experiment: Agar disc diffusion antibacterial test; settings: for diameter of clear zone inhibition / Inhibition %: D, (-) Pseudomonas aeruginosa; for diameter of clear zone inhibition: 20 µL of 100 µM on 6 mm disc, Control (DMSO) = 6 mm; for Inhibition %: (T–C)/T × 100
Staphylococcus Aureus = experiment: Agar disc diffusion antibacterial test; settings: for diameter of clear zone inhibition / Inhibition %: F, (+) Staphylococcus Aureus; for diameter of clear zone inhibition: 20 µL of 100 µM on 6 mm disc, Control (DMSO) = 6 mm; for Inhibition %: (T–C)/T × 100
BSA [2] = target: T1, BSA (Bos taurus, UniProt P02769); experiment: BSA binding by UV–vis absorption titration; design: species or system bovine; settings: for Δλ (nm) (blue shift of BSA band at 278 nm) / Chromism (% H) (hyperchromism): BSA 25 μM, compound 0–25 μM; for Chromism (% H) (hyperchromism): 278 nm; for Binding Constant Kapp by BH Method: BSA, UV–Vis titration; for ΔGb°: −RT ln Kapp, T = 298 K
T1 construct: purchased Sigma Aldrich
Procedure: UV–vis spectral titrations were performed with a 25 μM concentration of BSA at room temperature with a 5 mM Tris-HCl/50 mM NaCl buffer solution (pH: 7.4). When the sample concentrations (0–25 μM) increased in the same BSA concentration solution, the alteration in the absorption band at 278 nm was continuously monitored.
2.2.8. UV-Vis absorption titrations for the BSA binding assay
The test compound concentrations (0 –25 μM) were varied during the electronic absorption titrations, which were conducted at a fixed BSA concentration (25 μM) in aqueous media (pH = 7.2) at 25 °C. The property of BSA is also confirmed by the observation of a strong absorption band in the UV region at 278 nm. […] The increment of the test compound causes a gradual increase in the BSA absorption band, which leads to the […]
owing to non-covalent interaction of the test compound with BSA [33].
∆Amax = (A∞ - A0), ∆A = (Ax - A0), A0 , Ax and A∞ are denoted as the absorbance of free BSA, the absorbance of BSA in the increment concentrations of the compound, and the absorbance value of the fully bound form of bovine serum albumin with substance, respectively.

Mucor indicus = experiment: Agar disc diffusion antifungal test; settings: for diameter of clear zone inhibition / Inhibition %: J; for diameter of clear zone inhibition: 20 µL of 100 µM on 6 mm disc, Control (DMSO) = 6 mm; for Inhibition %: (T–C)/T × 100
Aspergillus niger = experiment: Agar disc diffusion antifungal test; settings: for diameter of clear zone inhibition / Inhibition %: H; for diameter of clear zone inhibition: 20 µL of 100 µM on 6 mm disc, Control (DMSO) = 6 mm; for Inhibition %: (T–C)/T × 100
BSA [3] = target: T1, BSA; experiment: BSA binding by fluorescence emission titration; design: species or system bovine; settings: for KSV (Stern-Volmer binding constant), BSA binding, Method–I / Kass (association binding constant), BSA binding, Stern–Volmer Method–II / n (number of binding sites), BSA binding, Stern–Volmer Method–II: BSA emission 350 nm; for Kq (bimolecular quenching rate constant), BSA binding, Stern–Volmer Method–I: Kq=KSV/τ0, τ0 = 10^−8 S, BSA emission 350 nm (λex 278 nm); for P (ratio of fluorescence quantum efficiency), BSA binding: intercept of F/F0 vs 1/[BSA]; for ΔGb°, BSA binding, Stern–Volmer Method–II: −RT ln Kass, T = 298 K
Procedure: The DNA/BSA binding properties were acquired from the emission spectral titration with the supporting of the JASCO FP-6300 spectrofluorometer between the 200 and 800 nm regions. It is additional evidence for the complexes’ manner of DNA binding. While DNA (200 µM) was present or absent, we vigilantly monitored the intensity variations between 610 nm and 510 nm during the initial emission and excitation of EB [27]. Correspondingly, the emission titrations for BSA interaction with different concentrations between 2.5 μM and 25 μM for all samples were conducted in a Tris-HCl buffer solution (pH: 7.4) between the regions of 300 nm and 400 nm. […]
experiments were measured for BSA interaction in the range of 300 –400 nm, using a fluorescence cuvette with a path length of 1 cm. all test compounds have no substantial fluorescence emission rate in any of the above ranges in Tris-HCl buffer solution (pH=7.2).
Therefore, BSA interaction tests are not impaired in the interaction with the complexes [ 28].
In the experiment, the emission of BSA solution (25 µM) in 50 mM Tris –HCl /1 mM NaCl […]
While raising the test compound ’s concentration (0-25 µM), the intensity of the BSA decreases due to static quenching in the generation of ground state BSA – complex adduct. The observations of the BSA molecule at the excitation wavelength (278 nm) and at the emission wavelength (350 nm) that both of […]
Fcorr = Fobs × e[(Aex× dex) + (Aem× dem)]/ 2 = Fobs × e(Aex + Aem)/ 2 (S12) Fcorr and F obs are represented as the IFE-corrected emission and observed (uncorrected) emission intensities, respectively. d ex and d em are denoted as the cuvette path lengths in the […]
excitation and emission directions, respectively. Also, the alteration in absorbance (OD) at the excitation and fluorescence wavelengths, respectively, is sometimes referred to as A ex and […]
F = 1+KSV [Q] = 1+ Kq τ0 (S13)
Where [Q] is represented as the sample concentration (quencher), the emission intensities F 0 and F are those in the […] of the quencher, respectively.
F ) = log Kass + nlog [Q] (S14)
KEB[EB] = Kapp[compound] (S15)
∆F = (F 0–F), Equation (16) was utilized to examine the Lineweaver –Burk binding constant (KLB) from the linear regression plot of 1/(F0–F) vs 1/[Q]. […]
γ =(F0–F)/F0, CF is denoted as the concentration of sample alone, the linear regression plot of (γ/CF) vs γ was employed to support equation (17), which was used to determine the values of KSA and n, respectively.
2.2.6. FRET calculation by Förster’s theory
Calculating FRET (Fluorescence Resonance Energy Transfer) is a crucial approach in determining the critical distance (r) between donor (BSA) and acceptor (test compound) molecules, in which the binding affinity between the BSA-complex systems could be evalued according to Förster’s theory. The overlap of the emission spectrum of the donor (BSA) and the absorption spectrum of the acceptor (compound) describes that the acceptor (compound) group may get excited as a result of the excited donor's (BSA) energy being lost to the ground

[4] = read-out: diameter of clear zone inhibition

T1 sequence (P02769 25-607): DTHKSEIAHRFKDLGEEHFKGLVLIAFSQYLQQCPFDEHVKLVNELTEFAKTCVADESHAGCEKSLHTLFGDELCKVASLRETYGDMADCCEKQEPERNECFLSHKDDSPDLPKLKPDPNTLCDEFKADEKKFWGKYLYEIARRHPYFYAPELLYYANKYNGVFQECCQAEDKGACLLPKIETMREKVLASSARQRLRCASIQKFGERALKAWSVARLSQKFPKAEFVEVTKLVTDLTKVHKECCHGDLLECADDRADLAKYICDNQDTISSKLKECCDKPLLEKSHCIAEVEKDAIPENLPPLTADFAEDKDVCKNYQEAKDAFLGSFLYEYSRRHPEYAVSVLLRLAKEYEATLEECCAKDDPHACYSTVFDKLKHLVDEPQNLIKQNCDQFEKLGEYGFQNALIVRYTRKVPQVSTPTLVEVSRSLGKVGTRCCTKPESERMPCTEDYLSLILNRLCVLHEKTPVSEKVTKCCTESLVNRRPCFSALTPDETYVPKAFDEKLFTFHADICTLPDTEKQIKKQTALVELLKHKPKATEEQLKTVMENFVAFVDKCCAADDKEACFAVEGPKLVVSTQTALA

Row | SMILES | Inhibition % (Escherichia coli) | % Inhibition, nitric oxide ([1]; 40 µM) | % Inhibition, nitric oxide ([1]; 80 µM) | % Inhibition, nitric oxide ([1]; 120 µM) | % Inhibition, nitric oxide ([1]; 160 µM) | % Inhibition, nitric oxide ([1]; 200 µM) | % Inhibition, nitric oxide ([1]; 240 µM) | Kapp (apparent binding constant) (EB–DNA) | Inhibition % (Pseudomonas aeruginosa) | Inhibition % (Staphylococcus Aureus) | Δλ (nm) (blue shift of BSA band at 278 nm) (BSA [2]) | Chromism (% H) (hyperchromism) (BSA [2]) | ΔGb° (BSA [2]) | Inhibition % (Mucor indicus) | Inhibition % (Aspergillus niger) | KSV (Stern-Volmer binding constant), BSA binding, Method–I (BSA [3]) | n (number of binding sites), BSA binding, Stern–Volmer Method–II (BSA [3]) | Kq (bimolecular quenching rate constant), BSA binding, Stern–Volmer Method–I (BSA [3]) | P (ratio of fluorescence quantum efficiency), BSA binding (BSA [3]) | ΔGb°, BSA binding, Stern–Volmer Method–II (BSA [3]) | other results
1 | [Cu+2].[O-]c1ccccc1N=Cc1ccc(N2CCOCC2)cc1.[O-]c1ccccc1N=Cc1ccc(N2CCOCC2)cc1.c1cnc2c(c1)ccc1cccnc12 [(1b), [Cu^II(L)2(phen)]] | 33% | 18.03% | 25.43% | 35.67% | 42.86% | 52.29% | 66.21% | 1e+07 M⁻¹ | 33% | 45% | 8 nm | 64.70% | −25.9330 kJmol^−1 | 40% | 40% | 95640 M⁻¹ | 1.021 | 9.564e+12 M⁻¹ s⁻¹ | 0.322 | –27.71 kJM^−1 | diameter of clear zone inhibition (Escherichia coli): 9 mm; diameter of clear zone inhibition (Pseudomonas aeruginosa): 9 mm; diameter of clear zone inhibition (Staphylococcus Aureus): 11 mm; Binding Constant Kapp by BH Method (BSA [2]): 35140 M⁻¹; diameter of clear zone inhibition (Mucor indicus): 10 mm; diameter of clear zone inhibition (Aspergillus niger): 10 mm; Kass (association binding constant), BSA binding, Stern–Volmer Method–II (BSA [3]): 71990 M⁻¹
2 | [O-]c1ccccc1N=Cc1ccc(N2CCOCC2)cc1.[O-]c1ccccc1N=Cc1ccc(N2CCOCC2)cc1.[Zn+2].c1cnc2c(c1)ccc1cccnc12 [(2b), [Zn^II(L)2(phen)]] | 40% | 14.67% | 22.43% | 29.42% | 38.82% | 45.53% | 59.88% | 4.804e+06 M⁻¹ | 25% | 45% | 8 nm | 62.16% | −24.7590 kJmol^−1 | 40% | 45% | 79350 M⁻¹ | 1.009 | 7.935e+12 M⁻¹ s⁻¹ | 0.285 | –27.25 kJM^−1 | diameter of clear zone inhibition (Escherichia coli): 10 mm; diameter of clear zone inhibition (Pseudomonas aeruginosa): 08 mm; diameter of clear zone inhibition (Staphylococcus Aureus): 11 mm; Binding Constant Kapp by BH Method (BSA [2]): 21878 M⁻¹; diameter of clear zone inhibition (Mucor indicus): 10 mm; diameter of clear zone inhibition (Aspergillus niger): 11 mm; Kass (association binding constant), BSA binding, Stern–Volmer Method–II (BSA [3]): 59840 M⁻¹
3 | Oc1ccccc1N=Cc1ccc(N2CCOCC2)cc1 [(HL), 2-(4-morpholinobenzylideneamino)phenol] | 33% | 11.42% | 18.26% | 24.28% | 33.21% | 40.53% | 51.62% | 4.2e+06 M⁻¹ | 25% | 33% | 2 nm | 47.79% | −22.3387 kJmol^−1 | 45% | 40% | 26390 M⁻¹ | 0.958 | 2.639e+12 M⁻¹ s⁻¹ | 0.225 | –23.86 kJM^−1 | zone of inhibition at 100 µM (Escherichia coli; Escherichia coli, read-out: diameter of clear zone inhibition): 9 mm; zone of inhibition at 100 µM (Pseudomonas aeruginosa; Pseudomonas aeruginosa, read-out: diameter of clear zone inhibition): 8 mm; zone of inhibition at 100 µM (Staphylococcus Aureus; Staphylococcus aureus, read-out: diameter of clear zone inhibition): 9 mm; zone of inhibition at 100 µM (Mucor indicus; [4]): 11 mm; zone of inhibition at 100 µM (Aspergillus niger; [4]): 10 mm
